Data as given in patent US9925280B2, “Hyperpolarized amino acids” (BRACCO IMAGING S.P.A., priority 2012, dated 2018).

Assay: Solubility in anhydrous solvents
Type: physicochemical
Procedure: The above components of the DNP mixture can be admixed according to any suitable technique and methodology known in the art. In a preferred embodiment, the amino acid and the hydroxide are first admixed as dry powders. The powder mixture is then dissolved in the anhydrous solvent, which preferably already contains the polarizing agent dissolved therein. […] Optionally, the DNP mixture may further contain a paramagnetic metal ion, for further increasing the polarisation levels in the compound to be polarised (see e.g. WO 2007/064226 herein incorporated by reference); preferably, the paramagnetic metal ion is in the form of a complex with a chelating agent, such as, for instance DOTA, DO3A, BOPTA or DTPA; preferably the paramagnetic metal ion is a Gadolinium (Gd^3+).

## NC(=O)CC[C@H](N)C(=O)O [glutamine]
  solubility in anhydrous solvents: very poor solubility
